According to ChEMBL document CHEMBL5465560, “Selectivity Literature for EUbOPEN Chemogenomic Library” (2024):

Legend:
[1] = target: T1, Calcium/calmodulin-dependent protein kinase type IV (Homo sapiens) (UniProt Q16566); assay: Selectivity interaction (KinomeScan (DiscoverX)) EUB0001619a CAMK4; settings: at 1 µM
T1 sequence (whole entry): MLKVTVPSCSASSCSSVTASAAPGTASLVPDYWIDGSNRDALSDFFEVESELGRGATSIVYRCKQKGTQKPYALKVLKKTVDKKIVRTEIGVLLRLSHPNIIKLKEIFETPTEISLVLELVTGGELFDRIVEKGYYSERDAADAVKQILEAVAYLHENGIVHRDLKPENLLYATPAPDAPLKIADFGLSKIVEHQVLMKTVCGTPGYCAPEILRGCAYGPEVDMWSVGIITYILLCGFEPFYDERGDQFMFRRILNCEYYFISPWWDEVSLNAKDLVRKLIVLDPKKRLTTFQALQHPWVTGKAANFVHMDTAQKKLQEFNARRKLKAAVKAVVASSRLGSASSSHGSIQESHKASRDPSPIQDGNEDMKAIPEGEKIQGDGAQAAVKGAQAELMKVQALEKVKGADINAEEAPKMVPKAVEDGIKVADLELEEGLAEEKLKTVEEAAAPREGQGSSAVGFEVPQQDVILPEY

[2] = target: T2, Serine/threonine-protein kinase ULK1 (Homo sapiens) (UniProt O75385); assay: Selectivity interaction (KinomeScan (DiscoverX)) EUB0000618a ULK1; settings: at 10 µM
T2 sequence (whole entry): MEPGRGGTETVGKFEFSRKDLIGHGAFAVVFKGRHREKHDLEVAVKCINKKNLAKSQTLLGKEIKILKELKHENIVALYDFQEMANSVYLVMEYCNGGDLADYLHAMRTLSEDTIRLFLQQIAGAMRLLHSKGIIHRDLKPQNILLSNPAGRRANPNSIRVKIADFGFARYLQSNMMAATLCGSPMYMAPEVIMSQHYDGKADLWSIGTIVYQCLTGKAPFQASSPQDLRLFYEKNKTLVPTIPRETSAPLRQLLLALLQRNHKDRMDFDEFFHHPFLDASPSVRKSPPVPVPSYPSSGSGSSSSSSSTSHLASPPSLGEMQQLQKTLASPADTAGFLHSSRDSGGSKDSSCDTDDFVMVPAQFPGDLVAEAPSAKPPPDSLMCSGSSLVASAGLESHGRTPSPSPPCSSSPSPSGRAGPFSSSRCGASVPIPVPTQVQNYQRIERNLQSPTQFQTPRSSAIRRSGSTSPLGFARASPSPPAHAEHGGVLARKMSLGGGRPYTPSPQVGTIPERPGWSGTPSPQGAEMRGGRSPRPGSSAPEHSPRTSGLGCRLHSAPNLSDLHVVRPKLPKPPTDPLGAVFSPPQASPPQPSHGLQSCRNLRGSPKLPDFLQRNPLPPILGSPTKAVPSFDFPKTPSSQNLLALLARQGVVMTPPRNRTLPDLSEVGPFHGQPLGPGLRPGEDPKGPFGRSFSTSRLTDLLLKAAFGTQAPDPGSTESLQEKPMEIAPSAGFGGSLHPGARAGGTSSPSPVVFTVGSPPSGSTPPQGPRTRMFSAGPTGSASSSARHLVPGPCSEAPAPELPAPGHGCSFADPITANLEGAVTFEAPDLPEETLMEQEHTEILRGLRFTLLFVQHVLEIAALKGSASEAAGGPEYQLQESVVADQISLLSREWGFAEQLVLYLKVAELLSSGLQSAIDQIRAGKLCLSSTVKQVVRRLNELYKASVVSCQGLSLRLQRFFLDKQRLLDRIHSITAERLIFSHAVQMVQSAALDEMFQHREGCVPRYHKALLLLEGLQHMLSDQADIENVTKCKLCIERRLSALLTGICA

[3] = target: T3, Mitogen-activated protein kinase kinase kinase 6 (Homo sapiens) (UniProt O95382); assay: Selectivity interaction (ActivX KiNativ screen (kinase selectivity in THP-1 cell lysates)) EUB0000639a MAP3K6; type: subcellular; settings: lysate, at 0.01 µM
T3 sequence (whole entry): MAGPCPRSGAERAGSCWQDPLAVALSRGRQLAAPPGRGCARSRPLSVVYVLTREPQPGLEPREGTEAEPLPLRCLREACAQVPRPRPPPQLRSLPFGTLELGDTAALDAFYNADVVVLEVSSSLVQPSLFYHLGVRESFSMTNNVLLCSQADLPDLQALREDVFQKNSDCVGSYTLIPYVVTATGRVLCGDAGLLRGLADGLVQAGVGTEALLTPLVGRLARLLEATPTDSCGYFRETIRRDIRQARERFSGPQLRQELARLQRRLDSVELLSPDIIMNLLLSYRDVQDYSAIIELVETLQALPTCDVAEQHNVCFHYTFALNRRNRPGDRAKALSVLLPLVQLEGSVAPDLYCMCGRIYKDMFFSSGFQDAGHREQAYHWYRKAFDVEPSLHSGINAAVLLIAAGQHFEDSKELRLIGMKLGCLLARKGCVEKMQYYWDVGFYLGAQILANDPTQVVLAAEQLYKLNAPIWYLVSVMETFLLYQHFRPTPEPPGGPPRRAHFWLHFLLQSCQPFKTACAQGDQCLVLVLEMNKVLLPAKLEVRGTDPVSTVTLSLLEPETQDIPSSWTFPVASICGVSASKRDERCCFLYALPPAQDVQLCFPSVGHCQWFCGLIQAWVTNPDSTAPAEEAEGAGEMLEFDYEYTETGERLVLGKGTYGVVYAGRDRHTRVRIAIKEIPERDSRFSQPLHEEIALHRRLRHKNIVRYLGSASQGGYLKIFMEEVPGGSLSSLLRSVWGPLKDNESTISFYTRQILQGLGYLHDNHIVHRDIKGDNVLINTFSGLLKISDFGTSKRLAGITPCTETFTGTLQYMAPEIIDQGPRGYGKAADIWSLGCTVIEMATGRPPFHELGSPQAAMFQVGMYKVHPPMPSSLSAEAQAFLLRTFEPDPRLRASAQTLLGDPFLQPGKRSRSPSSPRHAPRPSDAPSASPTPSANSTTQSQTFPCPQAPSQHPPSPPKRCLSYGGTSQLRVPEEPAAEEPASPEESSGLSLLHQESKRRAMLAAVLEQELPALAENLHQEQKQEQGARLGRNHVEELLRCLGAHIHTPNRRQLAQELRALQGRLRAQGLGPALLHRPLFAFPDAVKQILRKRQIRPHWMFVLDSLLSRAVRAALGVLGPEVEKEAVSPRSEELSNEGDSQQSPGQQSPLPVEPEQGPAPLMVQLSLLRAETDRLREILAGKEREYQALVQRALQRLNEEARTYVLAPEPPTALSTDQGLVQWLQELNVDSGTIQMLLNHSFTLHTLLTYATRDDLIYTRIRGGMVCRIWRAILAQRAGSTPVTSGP

`N#Cc1cccc(-c2c[nH]c3ncnc(N4CCOCC4)c23)c1` was tested, and the % of control [1] was 100%.

In the case of `O[C@H]1CC[C@H](Nc2ncc3nc(Nc4c(F)cc(F)cc4F)n([C@H]4CCOC4)c3n2)CC1`, the % of control [2] is reported as 84%.

`CC[C@@H]1[C@H](F)C(=O)N[C@@H]1COc1nccc2cc(C(N)=O)c(OC)cc12` [ZIMLOVISERTIB] gave a % of inhibition [3] of 3.1%.
